# In ChEMBL document CHEMBL1147712, “Triketoacid inhibitors of HIV-integrase: a new chemotype useful for probing the integrase pharmacophore” (Bioorg Med Chem Lett, 2006):
# Active and inactive are the calls of the source. The rule behind the calls is not given here.
# How the values were obtained:
# [1] = molecular target: T1, Human immunodeficiency virus type 1 integrase (Human immunodeficiency virus 1, UniProt Q7ZJM1)
# [2] = tested on: Human immunodeficiency virus 1; assay: Antiviral activity against HIV1 T66I, L172F mutant; assay type: functional, organism-based
# [3] = tested on: Human immunodeficiency virus 1; assay: Antiviral activity against wild-type HIV1 NL4-3; assay type: functional, organism-based; conditions: Human immunodeficiency virus 1, NL4-3
# [4] = tested on: Human immunodeficiency virus 1; assay: Antiviral activity against HIV1 V151A, V165I mutant; assay type: functional, organism-based
# [5] = molecular target: Genome polyprotein (Bovine viral diarrhea virus (strain CP7) (BVDV) (Mucosal diseasevirus)) (UniProt Q96662); assay: Inhibition of BVDV polymerase; conditions: Bovine viral diarrhea virus 1
# [6] = molecular target: DNA polymerase I (Escherichia coli) (UniProt P00582); assay: Inhibition of Klenow fragment
# [7] = tested on: Human immunodeficiency virus 1; assay: Antiviral activity against HIV1 NL4-3 T66I mutant; assay type: functional, organism-based; conditions: Human immunodeficiency virus 1, NL4-3
# [8] = molecular target: Human immunodeficiency virus type 1 protease (Human immunodeficiency virus 1) (UniProt Q72874); assay: Inhibition of HIV protease
# [9] = tested on: Respiratory syncytial virus; assay: Antiviral activity against RSV; assay type: functional, organism-based
# Enterobacteria phage T3 = assay: Inhibition of T3 polymerase
# [10] = molecular target: Human immunodeficiency virus type 1 reverse transcriptase (Human immunodeficiency virus 1) (UniProt Q72547); assay: Inhibition of HIV-RT
# [11] = molecular target: T1, Human immunodeficiency virus type 1 integrase; remark: listed apart in the source
# Enterovirus = assay: Antiviral activity against Rhinovirus; assay type: functional, organism-based
# [12] = tested on: Bovine viral diarrhea virus 1; assay: Antiviral activity against BVDV; assay type: functional, organism-based
# [13] = tested on: Human immunodeficiency virus 1; assay: Antiviral activity against HIV1; assay type: functional, organism-based
# [14] = molecular target: T1, Human immunodeficiency virus type 1 integrase; assay: Inhibition of HIV1 recombinant integrase in pre-integration complex
SMILES,IC50 [1] [µM],other results
O=C(CC(=O)c1nnn[nH]1)CC(=O)c1ccccc1Cl,125,–
O=C(CC(=O)C(=O)O)CC(=O)c1ccccc1Cl,1,EC50 [2]: > 200 µM; EC50 [3]: 55 µM; EC50 [4]: > 200 µM; Activity [5]: inactive; Activity [6]: inactive; EC50 [7]: > 200 µM; Activity [8]: inactive; Activity [9]: inactive; Activity (Enterobacteria phage T3): inactive; Activity [10]: inactive; IC50 [11]: 0.2 µM; Activity (Enterovirus): inactive; Activity [12]: inactive; EC50 [13]: 120 µM; IC50 [14]: 0.6 µM
O=C(/C=C(\O)C(=O)O)CCc1ccccc1,30,–
O=C(CC(=O)C(=O)O)CC(=O)c1ccc2ccccc2c1,6,–
O=C(O)C(=O)/C=C(\O)c1c[nH]c2ccc(Cl)cc12,0.4,IC50 [11]: 0.08 µM
O=C(CC(=O)C(=O)O)CC(=O)c1cccnc1,> 300,–
O=C(/C=C(\O)C(=O)O)CCc1ccc(Cl)c(Cl)c1,–,IC50 [11]: 0.01 µM
O=C(CC(=O)C(=O)O)CC(=O)c1ccc(-c2ccccc2)cc1,2,–
O=C(CC(=O)C(=O)O)CC(=O)c1ccccc1OCc1ccccc1,7,–
O=C(CC(=O)c1cccn1Cc1ccc(F)cc1)c1nnn[nH]1,> 125,–

# Continued, in another order:
IC50 [1] [µM],SMILES,other results
4,COc1ccccc1C(=O)CC(=O)CC(=O)C(=O)O,–
100,O=C(CC(=O)C(=O)O)CC(=O)c1ccccn1,–
26,O=C(/C=C(\O)C(=O)O)CCc1ccccc1Cl,–
8,O=C(CC(=O)C(=O)O)CC(=O)c1cccc(Cl)c1,–
9,O=C(CCc1ccccc1Cl)CC(=O)C(=O)O,–
6,O=C(CC(=O)C(=O)O)CC(=O)c1ccccc1C(F)(F)F,–
3,O=C(CC(=O)C(=O)O)CC(=O)c1ccccc1F,–
0.6,O=C(CC(=O)C(=O)O)CC(=O)c1cccc2ccccc12,–
80,O=C(CC(=O)C(=O)O)CC(=O)c1ccccc1,–
5,O=C(/C=C(\O)C(=O)O)CCc1ccccc1Br,–
